Assay results from patent US5910494A, “Hypolipidemic 1,4-benzothiazepine-1,1-dioxides” (Glaxo Wellcome Inc., priority 1997, dated 1999).

Tested on: ileal bile acid active uptake transport system
Test: In vivo inhibition of bile acid uptake: fecal excretion of 75SeHCAT (% inhibition of 75SeHCAT)
Parameters: species or system Male Spraque-Dawley rats
Conditions: oral gavage, twice daily for two days, rat, feces over 24 hr
From the text: In vivo inhibition of bile acid uptake
Inhibiting intestinal bile acid absorption with bile acid sequestrants or surgically with partial ileal bypass surgery is an effective way to decrease plasma LDL cholesterol concentration. Another approach to decreasing bile acid absorption is inhibiting the ileal bile acid active uptake transport system. It has been shown that this inhibition, as measured by the fecal excretion of bile acids results in hypocholesterolemic activity. (1) Lewis, M. C.; Brieaddy, L. E.; and Root, C. Effects of 2164U90 on Ileal Bile Acid Absorption and Serum Cholesterol in Rats and Mice. J. Lipid. Research., 1995, 36, 1098-1105.
Fecal Excretion of Bile Acids
Male Spraque-Dawley rats weighing 220-260 g were housed in individual cages and fed normal chow. The rats were divided into 6 treatment groups of 10 to 12 rats per group. The rats were dosed by oral gavage(1 mL/100 g body weight) with test compounds as a suspension in 0.5% methylcellulose at 9:00 am and 3:30 pm for two days. The control group received 0.5% methylcellulose. Two hours after the morning dose on day two, the rats were given a trace amount(1.3 nmoles) of 23, 25-^75 Se-homocholic acid taurine(^75 SeHCAT) in 1.0 mL saline orally. ^75 SeHCAT, a synthetic gamma emitting bile acid analog which is absorbed by the ileal bile acid uptake system similar to taurocholic acid, has been used clinically as a measure of ileal bile acid absorptionl,^1,2. Feces were collected over the 24 hr following ^75 SeHCAT administration. Fecal content of ^75 SeHCAT was determined using a Packard Auto-Gamma 5000 Series gamma-counter. Representative data are tabulated in Table 1 as the % inhibition of ^75 SeHCAT.

Row | Compound | % Inhibition of ^75 SeHCAT (0.1 mg/kg) [%] | % Inhibition of ^75 SeHCAT (0.3 mg/kg) [%] | % Inhibition of ^75 SeHCAT (1.0 mg/kg) [%]
1 | CCCC[C@]1(CC)CS(=O)(=O)c2cc(OC)ccc2[C@@H](c2ccccc2)N1 (relative stereo) [Example 10, (+-)-Trans-3-butyl-3-ethyl-2,3,4,5-tetrahydro-8-methoxy-5-phenyl-1,4-benzothiazepine 1,1-dioxide] | 33 | 53 | 
2 | CCCC[C@]1(CC)CS(=O)(=O)c2cc(O)ccc2[C@@H](c2ccccc2)N1 (relative stereo) [Example 11, (+-)-trans-3-butyl-3-ethyl-2,3,4,5-tetrahydro-5-phenyl-1,4-benzothiazepine-8-ol 1,1-dioxide] | 71 | 72 | 
3 | CCCC[C@]1(CC)CS(=O)(=O)c2cc(OC)c(C=O)cc2[C@@H](c2ccccc2)N1 (relative stereo) [Example 14, (+-)-Trans-3-butyl-3-ethyl-2,3,4,5-tetrahydro-8-methoxy-5-phenyl-1,4-benzothiazepine-7-carbaldehyde 1,1-dioxide] |  | 41 | 56
4 | CCCC[C@]1(CC)CS(=O)(=O)c2cc(O)c(C=O)cc2[C@@H](c2ccccc2)N1 (relative stereo) [Example 16, (+-)-Trans-3-butyl-3-ethyl-2,3,4,5-tetrahydro-8-hydroxy-5-phenyl-1,4-benzothiazepine-7-carbaldehyde 1,1-dioxide] |  | 34 | 44
5 | CCCC[C@]1(CC)CS(=O)(=O)c2cc(S(=O)(=O)O)ccc2[C@@H](c2ccccc2)N1 (relative stereo) [Example 18, (+-)-Trans-3-butyl-3-ethyl-2,3,4,5-tetrahydro-5-phenyl-1,4-benzothiazepine-8-sulfonic acid 1,1-dioxide] |  | 12 | 39
6 | CCCC[C@]1(CC)CS(=O)(=O)c2cc(OC)c(COC)cc2[C@@H](c2ccccc2)N1 (relative stereo) [Example 24, (+-)-Trans-3-butyl-3-ethyl-2,3,4,5-tetrahydro-8-methoxy-7-(methoxymethyl)-5-phenyl-1,4-benzothiazepine 1,1-dioxide] |  | 24 | 49
7 | CCCC[C@]1(CC)CS(=O)(=O)c2cc(OC)c(OC)cc2[C@@H](c2ccccc2)N1OC(C)=O (relative stereo) [Example 45, (+-)-Trans-3-butyl-3-ethyl-5-phenyl-2,3,4,5-tetrahydro-7,8-dimethoxy-1,4-benzothiazepin-4-yl acetate S,S-dioxide] |  | 6 | 26
8 | CCCC[C@]1(CC)CS(=O)(=O)c2cc(OC)c(OC)cc2[C@@H](c2ccccc2)N1 [Example 1, (3R,5R)-3-butyl-3-ethyl-2,3,4,5-tetrahydro-7,8-dimethoxy-5-phenyl-1-4-benzothiazepine 1,1-dioxide] | 54 | 51 | 
9 | CCCC[C@]1(CC)CS(=O)(=O)c2cc(O)c(O)cc2[C@@H](c2ccccc2)N1 [Example 7, (3R,5R)-3-Butyl-3-ethyl-2,3,4,5-tetrahydro-5-phenyl-1,4-benzothiazepine-7,8-diol 1,1-dioxide] | 72 | 65 | 
10 | CCCC[C@]1(CC)CS(=O)(=O)c2cc(O)c(OC)cc2[C@@H](c2ccccc2)N1 [Example 9, (3R,5R)-3-Butyl-3-ethyl-2,3,4,5-tetrahydro-7-methoxy-5-phenyl-1,4-benzothiazepine-8-ol 1,1-dioxide] | 70 | 80 | 
